Test results reported in patent US11464751B2, “Use of fluoroethylnormemantine for the prevention and treatment of anxiety” (REST THERAPEUTICS, priority 2017, dated 2022).
One block for each compound: values may come before it.

Experiments:
[1] = test system: naive rats (Wistar); assay: Open-field test (locomotor activity and anxiety); format: in vivo, rat; settings: for drowsiness effect / overall activity level of the animals: open field over 2 hours, FENM even at high doses, memantine 10 mg/kg
Description: (§1) Thus, to test state anxiety, several animal models are commonly used and have been validated by numerous studies: • open field test: This consists of forcibly exposing the animal (rat or mouse) to a new environment and observing its behavior. […] Locomotor activity and behavior are then assessed by recording the number of crossings of the grid lines, the frequency of retreats, the number of entries and the time spent in the central squares. This animal model is considered a good model of “normal” anxiety when adapting to a new environment. It has good predictability of human response to treatment (L. Prut, European Journal of Pharmacology 463 (2003) 3-33). The open-field test is also useful, when it is prolonged (behavioral recording time over 2 hours), as it allows monitoring the motor activity of the animals and thus their state of wakefulness, whereas measurements at short times give information on anxiety. • the light-dark box test: another animal model of anxiety is based on the aversive properties of an open-field space and on the comparison of exploratory activities in a lit compartment and in a dark compartment under the influence of anxiolytic substances (M Bourin, European Journal of Pharmacology 463 (2003) 55-65). This paradigm is based on rodents' innate aversion to bright places and on rodents' spontaneous exploratory behavior in response to stressful environments (new environment or light). The test device is divided into two compartments, one is small, dark and safe, the second is large, bright and stressful. This paradigm allows the prediction of anxiolytic or anxiogenic drug-like activities in mice. Passages between each compartment are a cue of exploration activity, while the time spent in each compartment reflects aversion. Anxiolytics, effective in humans, classic (benzodiazepines) as well as more recent anxiolytic compounds (serotonergic drugs or drugs acting on neuropeptide receptors) can be detected by this animal model which has the advantage of being simple and quick to use. • The open-field test with light gradient: the two models described above can be judiciously coupled in order to check the anxiolytic potential of a molecule, by eliminating the “burrow” effect induced by the presence of the dark compartment.
(§2) In the following examples, the effects of memantine, propranolol and fluoroethylnormemantine (FENM, the subject of the present invention) are studied in naive rats (Wistar) subjected to various tests related to depression or anxiety and then compared.
(§3) The test substances are administered to rats intraperitoneally in a volume of 5 ml/kg, 30 minutes before the behavioral tests are performed.
(§4) The injected solutions contain either of the molecules in the form of one of their salts, a hydrochloride (memantine·HCl and FENM·HCl) for the nitrogen derivatives and as such for propranolol, at the concentrations indicated below in a mixture of 95% (NaCl 0.9% ww in water)/5% ethanol. In each experiment, the dose per kilogram is referenced.
In this way, the animals are given a constant volume of solution (to the nearest difference in weight) equal to 5 ml/kg, or 1.5 ml for a 300 g rat.
(§5) For each paradigm, and each solution tested, 12 rats are subjected to injection and behavioral testing. The control solution is a saline solution.
• Open-field test: The locomotor activity of the animals and the “normal” anxiety associated with the discovery of an unknown environment are measured in an open field using a video monitoring system for 2 hours, 30 minutes after the injection of the solutions to be tested. The recorded data include, with a reading every 5 minutes, the time spent in the central squares, vertical activity, and the number of displacements.

[2] = test system: naive rats (Wistar); assay: Light-dark box test; format: in vivo, rat
Description: as §2, §3, §4, §5
In this example the light-dark box test was used. As it is based on rodents' innate aversion to light, the increase in time spent in the lighted compartment is therefore considered to reflect a lower level of anxiety.
The box used for this test is divided into a white behavior with high-power illumination (600 lux) and a black behavior with a lid (about 5 lux). The number of entries and the time spent in the illuminated compartment (anxiety zone) are recorded for 10 minutes by a video monitoring system. In addition, the system makes it possible to differentiate the periods between 0 and 5 minutes and between 5 and 10 minutes.

[3] = test system: naive rats (Wistar); assay: Open-field test with light gradient; format: in vivo, rat
Description: as §1, §2, §3, §4, §5
In this example the light-dark box test was modified by eliminating the compartmentalization of the box and using a high-intensity light gradient (600 lux). As it is based on rodents' innate aversion to light, the increase in time spent in the area closest to the light source is therefore considered to reflect a lower level of anxiety.
The animals are exposed to a 12-minute sequence, broken down into three parts, 4 minutes in darkness (ambient light of 5 lux), 4 minutes in the presence of the light gradient and 4 minutes again in darkness. Displacements are recorded in the same way as for the open-field test. The field of view is divided into 4 zones numbered from 1 to 4 according to the increasing distance from the light source.

[4] = molecular target: NMDA receptor; assay: Affinity with the NMDA receptor; format: binding; settings: compared with memantine
[5] = 10 mg/kg i.p., 30 min before test, 0-5 min

Vertical activity ([1]; 5 mg/kg i.p., 0-5 min): 40.67
Vertical activity ([1]; 5 mg/kg i.p., 0-10 min): 71.17
Number of displacements ([1]; 5 mg/kg i.p., 0-120 min): 1600
Vertical activity ([1]; 5 mg/kg i.p., 0-120 min): 136.00
Vertical activity ([1]; 5 mg/kg i.p., 5-10 min): 30.50
Vertical activity ([1]; 10 mg/kg i.p., 0-5 min): 52.33
Vertical activity ([1]; 10 mg/kg i.p., 0-10 min): 86.42
Number of displacements ([1]; 10 mg/kg i.p., 0-120 min): 1800
Vertical activity ([1]; 10 mg/kg i.p., 0-120 min): 173.75
Vertical activity ([1]; 10 mg/kg i.p., 5-10 min): 34.08
Vertical activity ([1]; 20 mg/kg i.p., 0-5 min): 47.33
Vertical activity ([1]; 20 mg/kg i.p., 0-10 min): 66.58
Number of displacements ([1]; 20 mg/kg i.p., 0-120 min): 2100
Vertical activity ([1]; 20 mg/kg i.p., 0-120 min): 208.92
Vertical activity ([1]; 20 mg/kg i.p., 5-10 min): 19.25
drowsiness effect / overall activity level of the animals [1]: does not generate the drowsiness effect
SMILES: NC12CC3CC(C1)CC(CCF)(C3)C2
Mean time spent in the central squares per time interval ([1]; 5 mg/kg i.p., 30 min before test, 0-5 min): 128.8 s
Mean time spent in the central squares per time interval ([1]; 5 mg/kg i.p., 0-10 min): 216.8 s
Mean time spent in the central squares per time interval ([1]; 5 mg/kg i.p., 0-120 min): 1563.6 s
Mean time spent in the central squares per time interval ([1]; 5 mg/kg i.p., 5-10 min): 88.0 s
Mean time spent in the central squares per time interval [1, 5]: 116.8 s
Mean time spent in the central squares per time interval ([1]; 10 mg/kg i.p., 0-10 min): 226.7 s
Mean time spent in the central squares per time interval ([1]; 10 mg/kg i.p., 0-120 min): 1803.8 s
Mean time spent in the central squares per time interval ([1]; 10 mg/kg i.p., 5-10 min): 109.9 s
Mean time spent in the central squares per time interval ([1]; 20 mg/kg i.p., 30 min before test, 0-5 min): 129.8 s
Mean time spent in the central squares per time interval ([1]; 20 mg/kg i.p., 0-10 min): 235.7 s
Mean time spent in the central squares per time interval ([1]; 20 mg/kg i.p., 0-120 min): 1692.8 s
Mean time spent in the central squares per time interval ([1]; 20 mg/kg i.p., 5-10 min): 105.9 s
Time spent in the lighted compartment ([2]; 1 mg/kg i.p., 0-5 min): 42.4 s
Time spent in the lighted compartment ([2]; 1 mg/kg i.p., 0-10 min): 71.0 s
Time spent in the lighted compartment ([2]; 1 mg/kg i.p., 5-10 min): 28.6 s
Time spent in the lighted compartment ([2]; 3 mg/kg i.p., 0-5 min): 34.4 s
Time spent in the lighted compartment ([2]; 3 mg/kg i.p., 0-10 min): 67.5 s
Time spent in the lighted compartment ([2]; 3 mg/kg i.p., 5-10 min): 33.2 s
Time spent in the lighted compartment ([2]; 10 mg/kg i.p., 0-5 min): 96.8 s
Time spent in the lighted compartment ([2]; 10 mg/kg i.p., 0-10 min): 171.9 s
Time spent in the lighted compartment ([2]; 10 mg/kg i.p., 5-10 min): 75.0 s
time spent in the lighted compartment compared with the control ([2]; 10 mg/kg, Student's t-test p<0.01): large and significant increase
Percentage of time spent in the area closest to the light source ([3]; 5 mg/kg i.p., Dark 1 (Habituation)): 32%
Percentage of time spent in the area closest to the light source ([3]; 5 mg/kg i.p., Dark 2 (Relief)): 30%
Percentage of time spent in the area closest to the light source ([3]; 5 mg/kg i.p., Light 600 lux (Stress)): 22%
anxiety effect (avoidance of the most strongly illuminated area) ([3]; 10 mg/kg dose): completely eliminated
Percentage of time spent in the area closest to the light source ([3]; 10 mg/kg i.p., Dark 1 (Habituation)): 29%
Percentage of time spent in the area closest to the light source ([3]; 10 mg/kg i.p., Dark 2 (Relief)): 34%
Percentage of time spent in the area closest to the light source ([3]; 10 mg/kg i.p., Light 600 lux (Stress)): 30%
Percentage of time spent in the area closest to the light source ([3]; 20 mg/kg i.p., Dark 1 (Habituation)): 39%
Percentage of time spent in the area closest to the light source ([3]; 20 mg/kg i.p., Dark 2 (Relief)): 29%
Percentage of time spent in the area closest to the light source ([3]; 20 mg/kg i.p., Light 600 lux (Stress)): 21%
affinity with the NMDA receptor (measured in Ki) [4]: same order of magnitude as that of memantine

Vertical activity ([1]; 10 mg/kg i.p., 0-5 min): 11.33
Vertical activity ([1]; 10 mg/kg i.p., 0-10 min): 16.00
Number of displacements ([1]; 10 mg/kg i.p., 0-120 min): 750
Vertical activity ([1]; 10 mg/kg i.p., 0-120 min): 60.08
Vertical activity ([1]; 10 mg/kg i.p., 5-10 min): 4.67
drowsiness effect / overall activity level of the animals [1]: decreases the overall activity level
SMILES: CC12CC3CC(C)(C1)CC(N)(C3)C2 [Memantine, memantine]
Mean time spent in the central squares per time interval [1, 5]: 90.4 s
Mean time spent in the central squares per time interval ([1]; 10 mg/kg i.p., 0-10 min): 136.8 s
Mean time spent in the central squares per time interval ([1]; 10 mg/kg i.p., 0-120 min): 1874.8 s
Mean time spent in the central squares per time interval ([1]; 10 mg/kg i.p., 5-10 min): 46.3 s
Time spent in the lighted compartment ([2]; 1 mg/kg i.p., 0-5 min): 34.2 s
Time spent in the lighted compartment ([2]; 1 mg/kg i.p., 0-10 min): 59.9 s
Time spent in the lighted compartment ([2]; 1 mg/kg i.p., 5-10 min): 25.7 s
Time spent in the lighted compartment ([2]; 3 mg/kg i.p., 0-5 min): 26.2 s
Time spent in the lighted compartment ([2]; 3 mg/kg i.p., 0-10 min): 34.3 s
Time spent in the lighted compartment ([2]; 3 mg/kg i.p., 5-10 min): 8.1 s
Time spent in the lighted compartment ([2]; 10 mg/kg i.p., 0-5 min): 31.0 s
Time spent in the lighted compartment ([2]; 10 mg/kg i.p., 0-10 min): 32.0 s
Time spent in the lighted compartment ([2]; 10 mg/kg i.p., 5-10 min): 0.9 s
time spent in the lighted compartment compared with the control ([2]; memantine 1, 3, 10 mg/kg): no effect was observed
